Source: patent US12479820B2, “Pyridin-3-yl derivatives” (Idorsia Pharmaceuticals Ltd, priority 2019, dated 2025)

Target: T1, human LPA1 receptor (Homo sapiens, UniProt Q92633)
T1 construct: TEV protease site; Gal4-VP16 transcription factor; host or cells: Tango EDG2-bla U2OS cells
Assay: Beta-arrestin recruitment assay to determine IC50 values for human LPAR1
Format: cell-based
Conditions: Tango EDG2-bla U2OS cells, antagonist assay, LPA 18:1 500 nM final
Text: Beta-Arrestin Recruitment Assay to Determine IC50 Values for Human LPAR1
The Tango™ EDG2-bla U2OS cells are obtained from Invitrogen. These cells contain the human LPA1 receptor cDNA linked to a TEV protease site and a Gal4-VP16 transcription factor integrated into the Tango™ GPCR-bla U2OS parental cell line. This parental cell line stably expresses a beta-arrestin/TEV protease fusion protein and the beta-lactamase (bla) reporter gene under the control of a UAS response element. Upon LPA (agonist) binding, LPA1 receptor gets activated, leading to arrestin-protease recruitment and proteolytic release of the transcription factor: The transcription factor then regulates transcription of a beta-lactamase reporter construct, which is measured upon addition of the live-cell substrate.
10′000 Tango™ EDG2-bla U2OS cells are seeded in a 384-well black with clear bottom plate in 30 μl Freestyle 293 Expression Medium (Invitrogen) and incubated for 20 h at 37° C., 5% CO2. For antagonist assays, 5 μl of test compound (dilution series in DMSO/Freestyle 293 Expression medium/0.1% fatty acid free BSA (Sigma)) or buffer control are added per well and incubated for 30 min at 37° C., 5% CO2. 5 μl of LPA 18:1 (500 nM final) (solution in Freestyle 293 Expression medium/0.1% fatty acid free BSA (Sigma)) are added per well and the plate incubated for 16 h at 37° C., 5% CO2. Cells are then loaded with LiveBLAzer-FRET™ B/G Substrate (Invitrogen) for 2 h in the dark and the fluorescence emission at 460 nm and 530 nm is measured using the SynergyMx reader (BioTek). Following the background subtraction from both channels, the 460/530 nm emission ratio for each well is calculated, then plotted and fitted to a 4-parameter logistic function to obtain IC50 values. IC50 is the concentration of antagonist inhibiting 50% of the maximal response.

T1 sequence (Q92633 whole entry, the tested form may be a part): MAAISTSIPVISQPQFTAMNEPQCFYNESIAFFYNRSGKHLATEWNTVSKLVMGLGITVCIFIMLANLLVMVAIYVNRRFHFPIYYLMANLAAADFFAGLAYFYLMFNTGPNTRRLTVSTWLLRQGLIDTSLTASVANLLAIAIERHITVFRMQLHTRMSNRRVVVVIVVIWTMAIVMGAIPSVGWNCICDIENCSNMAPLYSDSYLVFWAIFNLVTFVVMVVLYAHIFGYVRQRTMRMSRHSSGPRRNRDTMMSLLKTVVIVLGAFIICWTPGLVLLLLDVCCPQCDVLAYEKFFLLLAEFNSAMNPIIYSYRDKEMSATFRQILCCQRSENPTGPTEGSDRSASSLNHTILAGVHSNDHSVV

COc1cc(Cl)ncc1NC(=O)C1(c2ccccc2C(C)C)CN(Cc2c[nH]nn2)C1 [Example 18-15, 1-((1H-1,2,3-triazol-4-yl)methyl)-N-(6-chloro-4-methoxypyridin-3-yl)-3-(2-isopropylphenyl)azetidine-3-carboxamide]
IC50: 61 nM

COc1cc(Cl)ncc1NC(=O)C1(c2ccccc2C(C)C)CN(CCNS(N)(=O)=O)C1 [Example 18-28, N-(6-chloro-4-methoxypyridin-3-yl)-3-(2-isopropylphenyl)-1-(2-(sulfamoylamino)ethyl)azetidine-3-carboxamide]
IC50: 17 nM

CC(C)c1ccccc1C1(C(=O)Nc2cnc(Cl)cc2OC2CC2)CN(S(N)(=O)=O)C1 [Example 21-5, N-(6-chloro-4-cyclopropoxypyridin-3-yl)-3-(2-isopropylphenyl)-1-sulfamoylazetidine-3-carboxamide]
IC50: 6 nM

COc1cc(Cl)ncc1NC(=O)C1(c2ccccc2C(C)C)CCN(c2nc(C)ncc2F)CC1 [Example 24-18, N-(6-chloro-4-methoxypyridin-3-yl)-1-(5-fluoro-2-methylpyrimidin-4-yl)-4-(2-isopropylphenyl)piperidine-4-carboxamide]
IC50: 5 nM

C=C(C)C(=O)OCCNC(=O)N1CC(C(=O)Nc2cnc(Cl)cc2OC)(c2ccccc2C(C)C)C1 [Example 22-8, 2-(3-((6-chloro-4-methoxypyridin-3-yl)carbamoyl)-3-(2-isopropylphenyl)azetidine-1-carboxamido)ethyl methacrylate]
IC50: 12 nM

COc1cc(Cl)ncc1NC(=O)C1(c2ccccc2C(C)C)CN(C(=O)CNS(C)(=O)=O)C1 [Example 19-15, N-(6-chloro-4-methoxypyridin-3-yl)-3-(2-isopropylphenyl)-1-((methylsulfonyl)glycyl)azetidine-3-carboxamide]
IC50: 37 nM

COc1cc(F)ncc1NC(=O)C1(c2ccccc2C(C)C)CN(S(N)(=O)=O)C1 [Example 21-1, N-(6-fluoro-4-methoxypyridin-3-yl)-3-(2-isopropylphenyl)-1-sulfamoylazetidine-3-carboxamide]
IC50: 17 nM

COCCNS(=O)(=O)N1CC(C(=O)Nc2cnc(Cl)cc2OC)(c2ccccc2C(C)C)C1 [Example 21-20, N-(6-chloro-4-methoxypyridin-3-yl)-3-(2-isopropylphenyl)-1-(N-(2-methoxyethyl)sulfamoyl)azetidine-3-carboxamide]
IC50: 73 nM

CC(C)Oc1cc(Cl)ncc1NC(=O)C1(c2ccccc2C(C)C)CN(CCC(C)(C)C(=O)O)C1 [Example 18-20, 4-(3-((6-chloro-4-isopropoxypyridin-3-yl)carbamoyl)-3-(2-isopropylphenyl)azetidin-1-yl)-2,2-dimethylbutanoic acid]
IC50: 16 nM

COc1cc(Cl)ncc1NC(=O)C1(c2ccccc2C(C)C)CN(C(=O)NC(C)C)C1 [Example 22-4, N3-(6-chloro-4-methoxypyridin-3-yl)-N1-isopropyl-3-(2-isopropylphenyl)azetidine-1,3-dicarboxamide]
IC50: 9 nM

CCOc1cc(Cl)ncc1NC(=O)C1(c2ccccc2C(C)C)CN(C(=O)CC(C)(C)C(=O)O)C1 [Example 19-22, 4-(3-((6-chloro-4-ethoxypyridin-3-yl)carbamoyl)-3-(2-isopropylphenyl)azetidin-1-yl)-2,2-dimethyl-4-oxobutanoic acid]
IC50: 12 nM

COc1cc(Cl)ncc1NC(=O)C1(c2nc(F)ccc2C(C)C)CN(S(N)(=O)=O)C1 [Example 21-17, N-(6-chloro-4-methoxypyridin-3-yl)-3-(6-fluoro-3-isopropylpyridin-2-yl)-1-sulfamoylazetidine-3-carboxamide]
IC50: 16 nM

COc1cc(Cl)ncc1NC(=O)C1(c2ccccc2C(C)C)CN(C(=O)NCC(=O)O)C1 [Example 22-12, (3-((6-chloro-4-methoxypyridin-3-yl)carbamoyl)-3-(2-isopropylphenyl)azetidine-1-carbonyl)glycine]
IC50: 431 nM

COc1cc(Cl)ncc1NC(=O)C1(c2ccccc2C(C)C)CN(C(=O)c2cc(O)no2)C1 [Example 19-5, N-(6-chloro-4-methoxypyridin-3-yl)-1-(3-hydroxyisoxazole-5-carbonyl)-3-(2-isopropylphenyl)azetidine-3-carboxamide]
IC50: 270 nM

COc1cc(Cl)ncc1NC(=O)C1(c2ccccc2C(C)C)CCN(CCC(C)(C)C(=O)O)CC1 [Example 18-22, 4-(4-((6-chloro-4-methoxypyridin-3-yl)carbamoyl)-4-(2-isopropylphenyl)piperidin-1-yl)-2,2-dimethylbutanoic acid]
IC50: 79 nM

COc1cc(Cl)ncc1NC(=O)C1(c2ccccc2C(C)C)CN(CC(=O)O)C1 [Example 18-6, 2-(3-((6-chloro-4-methoxypyridin-3-yl)carbamoyl)-3-(2-isopropylphenyl)azetidin-1-yl)acetic acid]
IC50: 128 nM

CCNC(=O)N1CC(C(=O)Nc2cnc(Cl)cc2OC)(c2ccccc2C(C)C)C1 [Example 22-3, N3-(6-chloro-4-methoxypyridin-3-yl)-N1-ethyl-3-(2-isopropylphenyl)azetidine-1,3-dicarboxamide]
IC50: 6 nM

COc1cc(Cl)ncc1NC(=O)C1(c2ccccc2C2CCCC2)CN(S(N)(=O)=O)C1 [Example 21-19, N-(6-chloro-4-methoxypyridin-3-yl)-3-(2-cyclopentylphenyl)-1-sulfamoylazetidine-3-carboxamide]
IC50: 4 nM

COc1cc(Cl)ncc1NC(=O)C1(c2ccccc2C(C)C)CN(C(=O)Cc2cc(O)n[nH]2)C1 [Example 19-13, N-(6-chloro-4-methoxypyridin-3-yl)-1-(2-(3-hydroxy-1H-pyrazol-5-yl)acetyl)-3-(2-isopropylphenyl)azetidine-3-carboxamide]
IC50: 112 nM

CCOc1cc(Cl)ncc1NC(=O)C1(c2ccccc2C(C)C)CN(CCC(C)(C)C(=O)OC)C1 [Example 18-18, methyl 4-(3-((6-chloro-4-ethoxypyridin-3-yl)carbamoyl)-3-(2-isopropylphenyl)azetidin-1-yl)-2,2-dimethylbutanoate]
IC50: 142 nM

CC(C)c1ccccc1C1(C(=O)Nc2cnc(Cl)cc2OC2CC2)CNC1 [Example 7, N-(6-chloro-4-cyclopropoxypyridin-3-yl)-3-(2-isopropylphenyl)azetidine-3-carboxamide]
IC50: 41 nM

CCOc1cc(Cl)ncc1NC(=O)C1(c2ccccc2C(C)C)CN(CCCC(C)(C)C(=O)O)C1 [Example 18-27, 5-(3-((6-chloro-4-ethoxypyridin-3-yl)carbamoyl)-3-(2-isopropylphenyl)azetidin-1-yl)-2,2-dimethylpentanoic acid]
IC50: 21 nM

CCOC(=O)CCNC(=O)N1CC(C(=O)Nc2cnc(Cl)cc2OC)(c2ccccc2C(C)C)C1 [Example 22-13, ethyl 3-(3-((6-chloro-4-methoxypyridin-3-yl)carbamoyl)-3-(2-isopropylphenyl)azetidine-1-carboxamido)propanoate]
IC50: 7 nM

COc1cc(Cl)ncc1NC(=O)C1(c2ccccc2C(C)C)CN(S(=O)(=O)NCCO)C1 [Example 21-21, N-(6-chloro-4-methoxypyridin-3-yl)-1-(N-(2-hydroxyethyl)sulfamoyl)-3-(2-isopropylphenyl)azetidine-3-carboxamide]
IC50: 56 nM

CC(C)Oc1cc(Cl)ncc1NC(=O)C1(c2ccccc2C(C)C)CN(S(N)(=O)=O)C1 [Example 21-4, N-(6-chloro-4-isopropoxypyridin-3-yl)-3-(2-isopropylphenyl)-1-sulfamoylazetidine-3-carboxamide]
IC50: 1 nM
